Measurements: the supplement of paper PMC10307832

Tests used:
Assay in all cases: relative viability (nuclei count vs DMSO), 5 days (fraction); higher = more cells survive
[1] = tested on: NCI-H2023
Method in brief: (§1)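 After 5 days of treatment, lung cancer cells in 1536-well plates were fixed and stained in a single step (final 0.05% Triton X-100, 1% formaldehyde, 1 ug/ml Hoechst) and their nuclei counted on 4× images. Treatment had been applied by pin tool the day after seeding as one drug alone or as a fixed anchor-drug dose with five library-drug doses (not always all listed) in √10 steps. Relative viability is the nuclei count of treated wells divided by that of vehicle wells, and values are medians of duplicate plates.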

[2] = tested on: 201T
Method in brief: as §1

[3] = tested on: NCI-H650
Method in brief: as §1

[4] = tested on: HCC-78
Method in brief: as §1

[5] = tested on: HCC-15
Method in brief: as §1

[6] = tested on: ChaGo-K-1
Method in brief: as §1

[7] = tested on: NCI-H1734
Method in brief: as §1

[8] = tested on: HCC-44
Method in brief: as §1

[9] = tested on: SW 1573
Method in brief: as §1

[10] = tested on: NCI-H460
Method in brief: as §1

[11] = tested on: NCI-H1993
Method in brief: as §1

[12] = tested on: NCI-H441
Method in brief: as §1

[13] = tested on: LOU-NH91
Method in brief: as §1

[14] = tested on: LCLC-97TM1
Method in brief: as §1

[15] = tested on: HCC-366
Method in brief: as §1

[16] = tested on: LCLC-103H
Method in brief: as §1

[17] = tested on: NCI-H1650
Method in brief: as §1

[18] = tested on: A-427
Method in brief: as §1

[19] = tested on: RERF-LC-KJ
Method in brief: as §1

[20] = tested on: COR-L23
Method in brief: as §1

[21] = tested on: HARA
Method in brief: as §1

[22] = tested on: NCI-H2126
Method in brief: as §1

[23] = tested on: NCI-H2009
Method in brief: as §1

Compound: Cc1cnc(-c2cnc(NCCNc3ccc(C#N)cn3)nc2-c2ccc(Cl)cc2Cl)[nH]1 + CC(=O)Nc1cccc(-n2c(=O)n(C3CC3)c(=O)c3c(Nc4ccc(I)cc4F)n(C)c(=O)c(C)c32)c1 [Trametinib] (partner 0.02 µM)
- relative viability ([1]; first compound 0.08 µM): 0.647
- relative viability ([1]; first compound 0.253 µM): 0.537
- relative viability ([1]; first compound 0.8 µM): 0.712
- relative viability ([1]; first compound 2.53 µM): 0.798
- relative viability ([2]; first compound 0.08 µM): 0.746
- relative viability ([2]; first compound 0.8 µM): 0.707
- relative viability ([2]; first compound 2.53 µM): 0.753
- relative viability ([3]; first compound 0.08 µM): 1.17
- relative viability ([3]; first compound 0.253 µM): 0.989
- relative viability ([3]; first compound 0.8 µM): 1.29
- relative viability ([3]; first compound 2.53 µM): 0.988
- relative viability ([4]; first compound 0.08 µM): 0.876
- relative viability ([4]; first compound 0.253 µM): 0.669
- relative viability ([4]; first compound 0.8 µM): 0.621
- relative viability ([4]; first compound 2.53 µM): 0.828
- relative viability ([5]; first compound 0.08 µM): 0.449
- relative viability ([5]; first compound 0.253 µM): 0.391
- relative viability ([5]; first compound 0.8 µM): 0.383
- relative viability ([5]; first compound 2.53 µM): 0.422
- relative viability ([6]; first compound 0.08 µM): 0.891
- relative viability ([6]; first compound 0.253 µM): 0.761
- relative viability ([6]; first compound 0.8 µM): 0.844
- relative viability ([6]; first compound 2.53 µM): 0.824
- relative viability ([7]; first compound 0.08 µM): 0.801
- relative viability ([7]; first compound 0.253 µM): 0.641
- relative viability ([7]; first compound 0.8 µM): 0.775
- relative viability ([7]; first compound 2.53 µM): 0.72
- relative viability ([8]; first compound 0.08 µM): 1.13
- relative viability ([8]; first compound 0.253 µM): 1.02
- relative viability ([8]; first compound 0.8 µM): 1.01
- relative viability ([8]; first compound 2.53 µM): 1.04
- relative viability ([9]; first compound 0.08 µM): 0.718
- relative viability ([9]; first compound 0.253 µM): 0.537
- relative viability ([9]; first compound 0.8 µM): 0.575
- relative viability ([9]; first compound 2.53 µM): 0.337
- relative viability ([10]; first compound 0.08 µM): 0.225
- relative viability ([10]; first compound 0.253 µM): 0.121
- relative viability ([10]; first compound 0.8 µM): 0.107
- relative viability ([10]; first compound 2.53 µM): 0.195
- relative viability ([11]; first compound 0.08 µM): 0.506
- relative viability ([11]; first compound 0.253 µM): 0.536
- relative viability ([11]; first compound 0.8 µM): 0.454
- relative viability ([11]; first compound 2.53 µM): 0.52
- relative viability ([12]; first compound 0.08 µM): 0.561
- relative viability ([12]; first compound 0.8 µM): 0.443
- relative viability ([12]; first compound 2.53 µM): 0.372
- relative viability ([13]; first compound 0.08 µM): 0.799
- relative viability ([13]; first compound 0.253 µM): 0.84
- relative viability ([13]; first compound 0.8 µM): 0.843
- relative viability ([13]; first compound 2.53 µM): 0.856
- relative viability ([14]; first compound 0.08 µM): 0.201
- relative viability ([14]; first compound 0.253 µM): 0.193
- relative viability ([14]; first compound 0.8 µM): 0.18
- relative viability ([14]; first compound 2.53 µM): 0.214
- relative viability ([15]; first compound 0.08 µM): 0.397
- relative viability ([15]; first compound 0.253 µM): 0.308
- relative viability ([15]; first compound 0.8 µM): 0.292
- relative viability ([15]; first compound 2.53 µM): 0.326
- relative viability ([16]; first compound 0.08 µM): 0.686
- relative viability ([16]; first compound 0.253 µM): 0.676
- relative viability ([16]; first compound 0.8 µM): 0.631
- relative viability ([16]; first compound 2.53 µM): 0.671
- relative viability ([17]; first compound 0.08 µM): 0.659
- relative viability ([17]; first compound 0.253 µM): 0.47
- relative viability ([17]; first compound 0.8 µM): 0.365
- relative viability ([17]; first compound 2.53 µM): 0.469
- relative viability ([18]; first compound 0.08 µM): 0.814
- relative viability ([18]; first compound 0.253 µM): 0.792
- relative viability ([18]; first compound 0.8 µM): 0.827
- relative viability ([18]; first compound 2.53 µM): 0.837
- relative viability ([19]; first compound 0.08 µM): 0.951
- relative viability ([19]; first compound 0.253 µM): 0.847
- relative viability ([19]; first compound 0.8 µM): 0.832
- relative viability ([19]; first compound 2.53 µM): 0.771
- relative viability ([20]; first compound 0.08 µM): 0.763
- relative viability ([20]; first compound 0.253 µM): 0.565
- relative viability ([20]; first compound 0.8 µM): 0.642
- relative viability ([20]; first compound 2.53 µM): 0.585
- relative viability ([21]; first compound 0.08 µM): 0.746
- relative viability ([21]; first compound 0.253 µM): 0.68
- relative viability ([21]; first compound 0.8 µM): 0.623
- relative viability ([21]; first compound 2.53 µM): 0.708
- relative viability ([22]; first compound 0.08 µM): 0.58
- relative viability ([22]; first compound 0.253 µM): 0.546
- relative viability ([22]; first compound 0.8 µM): 0.564
- relative viability ([22]; first compound 2.53 µM): 0.546
- relative viability ([23]; first compound 0.08 µM): 0.372
- relative viability ([23]; first compound 0.253 µM): 0.273
- relative viability ([23]; first compound 0.8 µM): 0.293
- relative viability ([23]; first compound 2.53 µM): 0.384

Compound: Cc1cnc(-c2cnc(NCCNc3ccc(C#N)cn3)nc2-c2ccc(Cl)cc2Cl)[nH]1 + CCNC(=O)c1noc(-c2cc(C(C)C)c(O)cc2O)c1-c1ccc(CN2CCOCC2)cc1 [Luminespib] (partner 0.01 µM)
- relative viability ([1]; first compound 0.08 µM): 0.872
- relative viability ([1]; first compound 0.253 µM): 0.751
- relative viability ([1]; first compound 0.8 µM): 0.863
- relative viability ([1]; first compound 2.53 µM): 0.774
- relative viability ([2]; first compound 0.08 µM): 1.11
- relative viability ([2]; first compound 0.8 µM): 1.06
- relative viability ([2]; first compound 2.53 µM): 1.01
- relative viability ([3]; first compound 0.08 µM): 0.806
- relative viability ([3]; first compound 0.253 µM): 0.768
- relative viability ([3]; first compound 0.8 µM): 0.758
- relative viability ([3]; first compound 2.53 µM): 0.76
- relative viability ([5]; first compound 0.08 µM): 0.303
- relative viability ([5]; first compound 0.253 µM): 0.217
- relative viability ([5]; first compound 0.8 µM): 0.318
- relative viability ([5]; first compound 2.53 µM): 0.398
- relative viability ([6]; first compound 0.08 µM): 0.622
- relative viability ([6]; first compound 0.253 µM): 0.608
- relative viability ([6]; first compound 0.8 µM): 0.603
- relative viability ([6]; first compound 2.53 µM): 0.538
- relative viability ([7]; first compound 0.08 µM): 0.208
- relative viability ([7]; first compound 0.253 µM): 0.199
- relative viability ([7]; first compound 0.8 µM): 0.144
- relative viability ([7]; first compound 2.53 µM): 0.23
- relative viability ([8]; first compound 0.08 µM): 1.21
- relative viability ([8]; first compound 0.253 µM): 0.968
- relative viability ([8]; first compound 0.8 µM): 1.14
- relative viability ([8]; first compound 2.53 µM): 1.24
- relative viability ([9]; first compound 0.08 µM): 0.162
- relative viability ([9]; first compound 0.253 µM): 0.277
- relative viability ([9]; first compound 0.8 µM): 0.344
- relative viability ([9]; first compound 2.53 µM): 0.234
- relative viability ([10]; first compound 0.08 µM): 0.0473
- relative viability ([10]; first compound 0.253 µM): 0.0403
- relative viability ([10]; first compound 0.8 µM): 0.0345
- relative viability ([10]; first compound 2.53 µM): 0.0279
- relative viability ([11]; first compound 0.08 µM): 0.934
- relative viability ([11]; first compound 0.253 µM): 0.932
- relative viability ([11]; first compound 0.8 µM): 0.598
- relative viability ([11]; first compound 2.53 µM): 1.27
- relative viability ([12]; first compound 0.08 µM): 0.409
- relative viability ([12]; first compound 0.253 µM): 0.342
- relative viability ([12]; first compound 0.8 µM): 0.311
- relative viability ([12]; first compound 2.53 µM): 0.276
- relative viability ([13]; first compound 0.08 µM): 0.367
- relative viability ([13]; first compound 0.253 µM): 0.369
- relative viability ([13]; first compound 0.8 µM): 0.322
- relative viability ([13]; first compound 2.53 µM): 0.376
- relative viability ([14]; first compound 0.08 µM): 0.748
- relative viability ([14]; first compound 0.8 µM): 0.959
- relative viability ([14]; first compound 2.53 µM): 0.787
- relative viability ([16]; first compound 0.08 µM): 1.08
- relative viability ([16]; first compound 0.253 µM): 0.865
- relative viability ([16]; first compound 0.8 µM): 0.933
- relative viability ([16]; first compound 2.53 µM): 0.826
- relative viability ([17]; first compound 0.08 µM): 0.195
- relative viability ([17]; first compound 0.253 µM): 0.207
- relative viability ([17]; first compound 0.8 µM): 0.164
- relative viability ([17]; first compound 2.53 µM): 0.193
- relative viability ([18]; first compound 0.08 µM): 0.954
- relative viability ([18]; first compound 0.253 µM): 0.828
- relative viability ([18]; first compound 0.8 µM): 0.814
- relative viability ([18]; first compound 2.53 µM): 0.916
- relative viability ([19]; first compound 0.08 µM): 1.23
- relative viability ([19]; first compound 0.253 µM): 1.12
- relative viability ([19]; first compound 0.8 µM): 1.27
- relative viability ([19]; first compound 2.53 µM): 1.32
- relative viability ([20]; first compound 0.08 µM): 0.784
- relative viability ([20]; first compound 0.253 µM): 0.578
- relative viability ([20]; first compound 0.8 µM): 0.659
- relative viability ([20]; first compound 2.53 µM): 0.621
- relative viability ([21]; first compound 0.08 µM): 0.896
- relative viability ([21]; first compound 0.253 µM): 0.568
- relative viability ([21]; first compound 0.8 µM): 0.665
- relative viability ([21]; first compound 2.53 µM): 0.709
- relative viability ([22]; first compound 0.08 µM): 1.11
- relative viability ([22]; first compound 0.253 µM): 0.861
- relative viability ([22]; first compound 0.8 µM): 0.966
- relative viability ([22]; first compound 2.53 µM): 0.903
- relative viability ([23]; first compound 0.08 µM): 1.03
- relative viability ([23]; first compound 0.253 µM): 0.984
- relative viability ([23]; first compound 0.8 µM): 0.995
- relative viability ([23]; first compound 2.53 µM): 0.975
